Data set [1] has as its system mice of strain CD 1. The data set is described as follows: acute toxicity, 50 percent lethal dose (LD50), graphical method. It counts as in vivo. Particulars: mice CD 1, intraperitoneal; Table II. Here is the method: (§1) The 50 percent lethal dose (LD50) of the compounds is determined for mice of strain CD 1 by a graphical method.
(§2) The results are indicated in Table II below, for a representative number of compounds.

Data set [2] relates to mice of the CD 1 strain. The data set is described as follows: anoxia due to pressure reduction, survival time, mean active dose (MAD). Type of data set: in vivo, mice (CD 1 strain). Particulars: mice CD 1, intraperitoneal, 10 minutes before the experiment, 190 mm of mercury, Table II. The method, then: Mice of the CD 1 strain are kept in an atmosphere depleted in oxygen, by setting up a partial vacuum (190 mm. of mercury, corresponding to 5.25% of oxygen).
The survival time of the animals is noted. This time is increased by the agents capable of favouring oxygenation in the tissues and, in particular, in the brain. The compounds studied are administered intraperitoneally in several doses 10 minutes before the experiment. The percentage increases of the survival time relative to the values obtained with control animals are calculated. The mean active dose (MAD), namely the dose which increases the survival time by 100%, is determined graphically.
The results are indicated in Table II below for a representative number of compounds.

Data set [3] in a line: acute toxicity, 50 percent lethal dose (LD50), graphical method. As to conditions: mouse, in vivo, ip, mice CD 1, intraperitoneal; Table II; read-out: ACUTE TOXICITY LD50 for intraperitoneal administration. Type of data set: in vivo. Here is the method:
as §1, §2

Data set [4] concerns curarised rats ("sleep" induced by sodium 4-hydroxy-butyrate). Kind of data set: action on the duration of the "sleep" induced by sodium 4-hydroxy-butyrate (GHB) in curarised rats. As to conditions: GHB 200 mg/kg i.v.; for TOTAL DURATION of the "sleep": over 75 minutes, comparison 54.12 ± 2.07. Type of data set: in vivo, rats (male, Charles River strain). Here is the method:
This action was determined from the influence of the compounds on the duration of the "sleep" induced by sodium 4-hydroxy-butyrate (GHB) in curarised rats.
The animals used are male rats of the Charles River strain, weighing 200±20 g. The animals, curarised by alloferin given intraperitoneally at the rate of 1 mg/kg, are placed under artificial respiration by means of a mask applied over the snout (respiration frequency: 40/minute; volume respired: 14 cc). The oesophagus is ligatured beforehand so as to avoid air entering the stomach.
Fronto-parietal and occipital cortical electrodes make it possible to record the electrocorticographic activity on a Grass model 79P polygraph at a speed of 6 mm/sec. The animals are prepared under local anaesthesia (2% xylocaine). The rats are kept at a constant temperature (37.5° C.) throughout the experiment. Ten minutes after the end of the preparation of the rat, a dose of 200 mg/kg of Na 4-hydroxybutyrate is injected intravenously into the tail. […]
The traces are evaluated for periods of 15 minutes over the course of 75 minutes after the injection of "GHB". During this period of analysis, the total duration of the "sleep" is determined. A series of 15 comparisons makes it possible precisely to define the duration of the "GHB sleep".
The statistical analysis of the results is carried out with the aid of the Mann-Whitney "U" test.

A short description of data set [5]: acute toxicity, 50 percent lethal dose (LD50), graphical method. As to conditions: mouse, in vivo, iv; Table III; read-out: TOXICITY intravenous.

The record followed here is patent publication US4190657A, “Naphthyridine derivatives” (Synthelabo, priority 1976, dated 1980).

Structures are written as SMILES. Like-named read-outs stand apart in the source and are kept apart here.

For the compound `CN1CCc2c3n(c4ccccc24)C(=O)CCC31` (stereo not drawn) [2 (m.s.), 1,2,3,3a,4,5-Hexahydro-3-methyl-6H-indolo[3,2,1-de][1,5]naphthyridin-6-one], in data set [1], the “ACUTE TOXICITY LD50 for intraperitoneal administration” value stood at 52 mg/kg. For the same compound, in data set [2], the “ANOXIA DUE TO PRESSURE REDUCTION, mean active dose (MAD), dose which increases the survival time by 100%” value was found to be 4.5.

For the compound `O=C1CCC2NCCc3c2n1c1ccc(Cl)cc31` (stereo not drawn) [Compound 52], the LD50 was 165 mg/kg in data set [3] and 110 mg/kg in data set [5]. Besides, in data set [2] (Mus musculus, ip, read-out: ANOXIA DUE TO PRESSURE REDUCTION, mean active dose (MAD), dose which increases the survival time by 100%), the ED (100% increase in survival time) is 9.5 mg/kg. Moreover, the “TOTAL DURATION of the "sleep"” value was found to be 37.34 ± 3.35 minutes. seconds in data set [4] (10 mg/kg intraperitoneally) and 32.35 ± 5.02 minutes. seconds in data set [4] (30 mg/kg intraperitoneally). For the same compound, the change in vivo at 10 mg/kg in data set [4] (Rattus norvegicus, ip, 1.25 h, 10 mg/kg intraperitoneally, read-out: DIFFERENCE IN % RELATIVE TO THE CONTROLS (total duration of the "sleep")) was -31%. Also, the change in vivo at 30 mg/kg in data set [4] (Rattus norvegicus, ip, 1.25 h, 30 mg/kg intraperitoneally, read-out: DIFFERENCE IN % RELATIVE TO THE CONTROLS (total duration of the "sleep")) is -40%.
